Values of other authors as cited in US20200214978A1, “Functional chewing gum comprising phytonutrients and adaptogenic herbs” (BrilliantIQ AB, priority 2017, published 2020).

Assays:
[1] = supplementation, group of healthy adults
[2] = oral administration

Molecule: Phosphatidylserine
- increase the speed of calculations done in short-term memory [1]: 20%

Molecule: C[N+](C)(C)CCOP(=O)([O-])OC[C@H](O)CO [alpha-GPC, L-Alpha glycerolphosphorylcholine]
- beta waves [2]: significant increase
- delta waves [2]: significant decrease
